This experiment concerns the target Mitogen-activated protein kinase kinase kinase 14 (Homo sapiens, UniProt Q99558). Description: Inhibition of auto-phosphorylation of recombinant human NF-kappaB-inducing kinase (NIK/MAP3K14) activity. The method, then: NIK/MAP3K14 auto-phosphorylation activity was measured using the AlphaScreen (ascreen) format (Perkin Elmer). All compound6 tested were dissolved in dimethyl sulfoxide (DMSO) and further dilutions were made in assay buffer. The final DMSO concentration was 0.7% (v/v) in assays. The assay buffer was 50 mM Tris pH 7.5 containing 1 mM EGTA (ethylene glycol tetraacetic acid), 1 mM DTT (dithiothreitol), 0.1 mM NasVCO4, 5 mM MgCE, and 0.01 % Tween 20. The assays were carried out in 384 well Proxiplates (Perkin Elmer). The incubations consisted of the compound, […] Adenosine-5'-triphosphate (ATP), and 1 nM NIK/MAP3K14. Incubations were initiated by the addition of GST-tagged NIK/MAP3K14 enzyme, carried out for 2 h at 25 °C and terminated by addition of stop buffer containing anti-phospho-IKK Ser176/180 antibody. Protein A Acceptor and Glutathione-Donor bead6 were added before reading using an EnVision Multilabel Plate Reader (Perkin Elmer). The signal obtained in the wells was normalized using high (full enzyme activity, 0.7% DMSO) and low controls (no enzyme activity, 0.7% DMSO, no ATP). IC50 s were determined by fitting a sigmoidal curve to % inhibition of control versus Log compound concentration.
Mitogen-activated protein kinase kinase kinase 14, sequence (Q99558 whole entry): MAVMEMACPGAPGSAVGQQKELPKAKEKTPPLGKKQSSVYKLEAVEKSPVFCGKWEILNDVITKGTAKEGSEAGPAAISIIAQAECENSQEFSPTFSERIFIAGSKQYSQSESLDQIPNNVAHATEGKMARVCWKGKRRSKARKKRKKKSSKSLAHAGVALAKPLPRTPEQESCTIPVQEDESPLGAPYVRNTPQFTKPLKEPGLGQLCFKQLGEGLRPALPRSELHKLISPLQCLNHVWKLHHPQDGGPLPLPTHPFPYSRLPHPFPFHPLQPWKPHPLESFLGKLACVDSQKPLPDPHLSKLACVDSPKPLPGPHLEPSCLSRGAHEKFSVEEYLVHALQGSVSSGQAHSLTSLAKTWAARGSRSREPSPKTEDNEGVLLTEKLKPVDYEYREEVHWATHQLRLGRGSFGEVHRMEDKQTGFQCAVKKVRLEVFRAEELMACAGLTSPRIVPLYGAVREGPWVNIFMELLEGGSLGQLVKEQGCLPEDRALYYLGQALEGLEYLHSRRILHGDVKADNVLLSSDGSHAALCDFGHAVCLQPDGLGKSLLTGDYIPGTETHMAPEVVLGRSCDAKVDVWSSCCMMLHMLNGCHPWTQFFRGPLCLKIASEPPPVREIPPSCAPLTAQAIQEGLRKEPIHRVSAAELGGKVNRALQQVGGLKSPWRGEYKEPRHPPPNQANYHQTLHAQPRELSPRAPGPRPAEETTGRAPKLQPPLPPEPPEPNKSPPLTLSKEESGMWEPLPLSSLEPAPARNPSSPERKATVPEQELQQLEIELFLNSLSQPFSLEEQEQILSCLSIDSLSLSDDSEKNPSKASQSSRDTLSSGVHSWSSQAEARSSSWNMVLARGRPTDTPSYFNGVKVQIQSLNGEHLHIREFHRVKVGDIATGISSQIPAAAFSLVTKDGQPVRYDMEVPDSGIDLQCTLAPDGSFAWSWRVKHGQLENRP
For `C[C@@]1(O)C[C@](O)(c2cccc(-c3csc(-c4c[nH]c5ncccc45)n3)c2)c2ncccc21` [WO2022104348, Example 107], the IC50 was > 500 nM. Consider `CN1CC[C@@](O)(c2cccc(-c3nc(-c4c[nH]c5ncccc45)sc3C#N)c2)C1=O` [WO2022104348, Example 98], for which the half-maximal inhibitory concentration (IC50) was > 500 nM. The same measure for `Cc1sc(-c2c[nH]c3nccnc23)nc1-c1cccc([C@]2(O)CCN(C)C2=O)c1` [WO2022104348, Example 66]: < 100 nM; for `O[C@@]1(c2cccc(-c3csc(-c4c[nH]c5ncc(C(F)(F)F)cc45)n3)c2)Cc2nccn2C1` [WO2022104348, Example 25]: < 100 nM; for `CN1CC[C@@](O)(c2cccc(-c3nc(-c4c[nH]c5ncccc45)sc3F)c2)C1=O` [WO2022104348, Example 99]: < 100 nM. For `CN1CC[C@@](O)(c2cccc(-c3nc(-c4ccnc5[nH]ccc45)cs3)c2)C1=O` [WO2022104348, Example 127] the value was < 100 nM; for `O[C@@]1(c2cccc(-c3csc(-c4n[nH]c5cccnc45)n3)c2)CCn2ccnc21` [WO2022104348, Example 75], ≤ 500 nM; for `CN1CC[C@@](O)(c2cccc(-n3cc(-c4c[nH]c5ncccc45)nn3)c2)C1=O` [WO2022104348, Example 123], > 500 nM.

With `COc1cnc2[nH]cc(-c3nc(-c4cccc([C@]5(O)CCN(C)C5=O)c4)cs3)c2c1` [WO2022104348, Example 49], the IC50 was < 100 nM.

As to `Cc1cnc2c(-c3nc(-c4cccc([C@]5(O)CCn6ccnc65)c4)cs3)c[nH]c2n1` [WO2022104348, Example 83], the IC50 was < 100 nM. For `Cc1noc2c1CC[C@@]2(O)c1cccc(-c2csc(-c3c[nH]c4ncccc34)n2)c1` [WO2022104348, Example 126] the value was < 100 nM; for `O[C@]1(c2cccc(-c3csc(-c4c[nH]c5ncccc45)n3)c2)Cc2nccn2C1` [WO2022104348, Example 10], < 100 nM. For `C[C@@](O)(c1cccc(-c2csc(-c3c[nH]c4nccnc34)n2)c1)c1ncc[nH]1` [WO2022104348, Example 77] the value was > 500 nM. The same measure for `O[C@@]1(c2cccc(-c3csc(-c4c[nH]c5nccnc45)n3)c2)COc2cccnc21` [WO2022104348, Example 86]: > 500 nM. Consider `CN1CC[C@@](O)(c2cccc(-c3csc(-c4c[nH]c5ncccc45)n3)c2)C1=O` [WO2022104348, Example 40], for which the IC50 is < 100 nM.

For the compound `Cn1ccnc1[C@@](C)(O)c1cccc(-c2csc(-c3c[nH]c4ncccc34)n2)c1` [WO2022104348, Example 79], the half-maximal inhibitory concentration (IC50) was > 500 nM. For `CN1CC[C@@](O)(c2cccc(-c3nc(-c4c(Cl)cnc5[nH]ccc45)cs3)c2)C1=O` [WO2022104348, Example 130] the value was > 500 nM. `Cc1cnc2[nH]cc(-c3nc(-c4cccc([C@@]5(O)CCn6ccnc65)c4)cs3)c2n1` [WO2022104348, Example 81]: the IC50 was < 100 nM. The same measure for `CN1CC[C@@](O)(c2cccc(-c3csc(-n4ccc5nc(N)ccc54)n3)c2)C1=O` [WO2022104348, Example 112]: > 500 nM; for `O[C@]1(c2cccc(-c3csc(-c4c[nH]c5ncccc45)n3)c2)CCCn2ccnc21` [WO2022104348, Example 37]: > 500 nM. The same measure for `CN1CC[C@@](O)(c2cccc(-c3csc(-c4c[nH]c5ncc(F)c(F)c45)n3)c2)C1=O` [WO2022104348, Example 94]: < 100 nM; for `O[C@@]1(c2cccc(-c3csc(-c4c[nH]c5nnccc45)n3)c2)CCn2ccnc21` [WO2022104348, Example 88]: < 100 nM.

`O[C@@]1(c2cccc(-c3csc(-c4c[nH]c5ncc(Cl)cc45)n3)c2)Cc2nccn2C1` [WO2022104348, Example 27]: the IC50 was < 100 nM. The same measure for `O[C@]1(c2cccc(-c3csc(-c4c[nH]c5nccnc45)n3)c2)OCc2cccnc21` [WO2022104348, Example 17]: < 100 nM.

These data come from BindingDB's records for patent WO2022104348 (Janssen Pharmaceutica, 2022).
